These results are taken from US10414832B2, “Derivatives of sulfated polysaccharides, method of preparation, modification and use thereof” (Contipro a.s., priority 2015, dated 2019).

For data set [1] the following is noted: purchased from Sigma Aldrich; cited from earlier work.
Data set [2] deals with 3T3 fibroblasts. The data set can be described thus: Viability tests of 3T3 fibroblasts (MTT method). The data set is classed as cell-based. As to conditions: 3T3 cells, 10, 100, 500 and 1000 μg·mL^−1, 0, 24, 48, 72 hours. As for the experimental part:
FIG. 3 illustrates the results of the cell viability tests of 3T3 fibroblasts in α,β-unsaturated aldehyde of chondroitin sulfate (Mw=4×10^4 g/mol, DS=20%). The activation vs inhibition curve, expressed in %, with respect to the control in time T=0 h (100%). Evaluation by means of MTT method, six repetitions.
The tested substance, α,β-unsaturated aldehyde of chondroitin sulfate (DS=20%, Mw=40 kDa), was dissolved in a complete 3T3 medium. The solution was filtered via a 0.22 μm filter. The final test concentrations of the tested solution were 10, 100, 500, and 1000 μg·mL^−1. 3T3 cells of the density of 3000 cells per a well were inoculated into 96-well plates. Before the treatment, the cells were cultured for 24 hours in a complete medium. The cell viability was evaluated by spectrophotometry by means of 3-[4,5-dimethylthiazole-2-yl]-2,5-diphenyl tetrazolium bromide (MTT method) in the intervals of 0, 24, 48, 72 hours. The whole experiment was supplemented with a set of non-treated controls and blank samples. The measured optical density data were converted into percentage formulation related to the control in the time T0 hours (the ratio of the optical density of the treated sample with respect to the optical density of the non-treated control T0, multiplied by 100) and the standard error of the mean (SEM) was calculated. The results of the test are graphically presented at FIG. 3.

The nature of data set [3]: Solubility in DMSO. The format is physicochemical. As to conditions: lyophilized acid form. The procedure: A 1% solution of chondroitin sulfate (500 mg, 1.1 mmol) in distilled water was prepared. The solution was cooled to 5° C. and 1.2 ml of Amberlite IR 120 Na(H^+) catex was added. The reaction mixture was stirred for 24 h at 5° C. The catex was filtered off, the product was frozen and lyophilized. Its solubility in DSMO was tested and found satisfactory.

With sodium salt of dermatan sulfate, the solubility in water in data set [1] was 5 mg/mL.

In the case of Lambda carrageenan, in data set [1], the solubility in water was 10 mg/mL.

Regarding “α,β-unsaturated aldehyde of chondroitin sulfate”, the “cytotoxicity (cell viability of 3T3 fibroblasts)” value in data set [2] was “not cytotoxic”.

On to “Acid Form of Chondroitin Sulfate [Example 26]”, for which the “solubility in DSMO” value in data set [3] is reported as “satisfactory”.
